Laboratory results taken from publication PMC9110388, “Integrative structure determination reveals functional global flexibility for an ultra-multimodular arabinanase” (Communications Biology, 2022).

Target: T1, AbnA-WT (Geobacillus stearothermophilus, UniProt B3EYN2)
T1 sequence (B3EYN2 29-848): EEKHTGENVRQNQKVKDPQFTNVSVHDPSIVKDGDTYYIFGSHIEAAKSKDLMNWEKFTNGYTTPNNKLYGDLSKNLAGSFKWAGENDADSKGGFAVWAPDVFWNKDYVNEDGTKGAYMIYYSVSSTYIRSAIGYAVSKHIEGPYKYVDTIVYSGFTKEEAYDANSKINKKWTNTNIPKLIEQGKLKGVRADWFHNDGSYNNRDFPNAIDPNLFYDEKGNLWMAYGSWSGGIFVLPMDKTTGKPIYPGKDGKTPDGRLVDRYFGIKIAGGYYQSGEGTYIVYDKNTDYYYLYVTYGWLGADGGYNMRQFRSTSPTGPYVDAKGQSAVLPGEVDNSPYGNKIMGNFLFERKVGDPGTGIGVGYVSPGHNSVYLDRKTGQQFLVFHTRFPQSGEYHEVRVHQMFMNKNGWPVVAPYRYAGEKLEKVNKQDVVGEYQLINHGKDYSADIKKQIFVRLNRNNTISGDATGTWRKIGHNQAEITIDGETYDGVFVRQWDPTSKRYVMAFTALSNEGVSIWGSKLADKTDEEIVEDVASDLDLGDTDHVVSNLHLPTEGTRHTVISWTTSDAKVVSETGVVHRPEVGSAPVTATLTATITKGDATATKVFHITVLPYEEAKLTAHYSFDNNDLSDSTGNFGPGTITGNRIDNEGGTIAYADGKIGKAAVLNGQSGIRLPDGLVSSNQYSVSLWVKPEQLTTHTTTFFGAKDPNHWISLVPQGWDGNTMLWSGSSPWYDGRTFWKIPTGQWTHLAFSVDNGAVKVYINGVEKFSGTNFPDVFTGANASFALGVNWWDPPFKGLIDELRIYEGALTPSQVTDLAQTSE
Assay: X-ray crystal structure, soaked crystal, […] A
Type: binding
Settings: bound in Domain4 (CBM-like) cleft, not in the active site; 5 mM soak ~30 s; 70% occupancy

OC[C@@H]1O[C@@H](OC[C@@H]2O[C@@H](OC[C@@H]3O[C@@H](OC[C@@H]4O[C@@H](OC[C@@H]5OC(O)[C@H](O)[C@H]5O)[C@H](O)[C@H]4O)[C@H](O)[C@H]3O)[C@H](O)[C@H]2O)[C@H](O)[C@H]1O (stereo partly shown) [A5, arabinopentaose]
X-ray crystal structure, soaked crystal, 2.95 A: extra density was observed in Domain4, and this could be clearly modelled as an arabinopentaose molecule
